Experimental data reported in patent US20250214951A1, “3-PHENYLISOXAZOLE DERIVATIVE, AND PHARMACEUTICAL COMPOSITION FOR PREVENTING OR TREATING EYE DISEASE, CONTAINING SAME AS ACTIVE INGREDIENT” (VASTHERA CO., LTD., priority 2022, published 2025).

Legend:
A2E-BDP in ARPE-19 cells [1] = test: Removal of A2E-BDP by concentration, fluorescence and phase contrast microscopy; type: cell-based, human; details: ARPE-19 with A2E-BDP; 10, 25, 50 μM, 24 h; FIG. 1
Method: ARPE-19 cell line was dispensed into a 24-well plate at a concentration of 4×10^4 cells/well and cultured for 24 hours. In order to induce A2E-BDP accumulation in ARPE-19 cell line, the cells were treated with […] of 10 μM for 24 hours. The A2E-BDP-containing ARPE-19 cells were treated with compound 17 (10, 25, 50 μM) for 24 hours. The level of A2E-BDP in each cell was measured as a fluorescence image at 510 nm using a Nikon Eclipse Ti—U fluorescence microscope (Tokyo, Japan). In addition, the change in cell number according to compound treatment was observed using a general phase contrast microscope, and the results are shown in FIG. 1. Meanwhile, lutein was used as a control substance.

[2] = system: A2E-BDP present in human retinal pigment epithelial cells (ARPE-19); test: Screening of ability to remove A2E-fluorescent labeling substance (A2E-BDP), lysate fluorescence; type: cell-based; details: ARPE-19, 24 h, ARPE-19 loaded with 10 μM A2E-BDP 24 h, test compound 50 μM once, fluorescence ex 485/em 535 nm, read-out: Capacity (%) to remove A2E-BDP at 50 μM
Method: (§1) The human retinal pigment epithelial cell line (ARPE-19) used in the experiment was provided by ATCC (American Type Culture Collection). The ARPE-19 cell line was cultured in DMEM medium containing 10% FBS. After culture, the cells were dispensed into 96-well plates at a concentration of 4×10^3 cells/well and cultured for 24 hours. The ARPE-19 cell line was treated with A2E-fluorescent labeling substance (A2E-BDP) at a concentration of 10 μM for 24 hours to induce the accumulation of A2E-BDP in the ARPE-19 cell line.
(§2) In order to evaluate the intracellular A2E removal ability of the compound of the present invention, an easily detectable A2E-fluorescent labeling substance (A2E-BDP) was used. The ARPE-19 cells prepared by the above method were treated with each test compound at a concentration of 50 μM once, and then cultured for 24 hours. The cells were lysed by adding a cell lysis buffer containing a protease inhibitor (50 mM Tris-chloride, pH 8.0, 150 mM sodium chloride, 1% NP-40, 1% sodium deoxycholate, 1% sodium dodecyl sulfate, and 2 mM ethylenediamine tetraacetic acid) to each 96-well. The prepared cell lysate was transferred to a white 96-well plate, and the fluorescence intensity was measured using a fluorescence microplate reader (VICTOR™ X3, Perkin Elmer, USA) (excitation 485 nm, emission 535 nm).

[3] = system: p62 protein phosphorylated at serine 349 (p-p62 (S349)); test: Autophagy activation by increase of p-p62 (S349), Western immunoblotting; type: cell-based, human; details: indicated concentrations; FIG. 14
Method: The cells were treated with the test compounds at the indicated concentrations, and the autophagy activation effect through the increase of p62 protein (p-p62 (S349)) phosphorylated at serine 349 residue was measured by Western immunoblotting using an anti-p-p62 antibody, and the results are shown in FIG. 14. The increase in the intracellular P-p62 ([…]) level is one of the major indicators of autophagy activation.

A2E-BDP in ARPE-19 cells [4] = test: A2E-BDP removal ability by concentration of other example compounds; type: cell-based, human; details: indicated concentrations; FIG. 13
Method: as §1, §2
The A2E-fluorescent labeling substance (A2E-BDP) removal ability was evaluated according to Experimental Example 1 (except that the test compound was treated at the indicated concentration).

Row | SMILES | A2E-BDP fluorescence intensity (fluorescence microscope) (A2E-BDP in ARPE-19 cells [1]) | inhibition at 50 µM [2] | autophagy activation through increase of p-p62 (S349) [3] | A2E-BDP removal ability by concentration (amount of A2E) (A2E-BDP in ARPE-19 cells [4])
1 | CC1=C[C@H](O)CC(C)(C)[C@H]1/C=C/C(C)=C/C=C/C(C)=C/C=C/C=C(C)/C=C/C=C(C)/C=C/C1=C(C)C[C@@H](O)CC1(C)C [lutein, reference compound] | a decrease in fluorescence intensity was observed | – | – | –
2 | COc1ccc(Br)cc1-c1cc(CN2CCN(C(=O)OC(C)(C)C)CC2)on1 [Example 21, tert-butyl 4-((3-(5-bromo-2-methoxyphenyl)isoxazole-5-yl)methyl)piperazine-1-carboxylate] | – | ≥ 60% | activated autophagy in a concentration-dependent manner | concentration-dependent decrease in the amount of A2E
